Reference: PubChem BioAssay AID1919004 (Molecular Pharmacology Branch, DTP, NCI, 2023)

System: 883617-216-R-J1-PDC complex spheroids, growth, % test/control
Assay: Anticancer human tumor 883617-216-R-J1-PDC patient-derived bladder carcinoma cell line growth inhibition [AhR]
Details: for IC50: curve of first compound; for viability, T/C: stronger effect = lower value
In short: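 Agents were dosed in half-log steps down from roughly clinical Cmax, or from 10 microM where Cmax was unknown, alone and with AhR antagonists. Read-out: percent test/control growth of tumor spheroids containing HUVEC and MSC stromal cells.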

[1] = second compound 0.1 µM, first compound 0.000949 µM
[2] = second compound 0.1 µM, first compound 0.003 µM
[3] = second compound 0.1 µM, first compound 0.00949 µM
[4] = second compound 0.1 µM, first compound 0.03 µM
[5] = second compound 0.1 µM, first compound 0.0949 µM
[6] = second compound 0.1 µM, first compound 0.3 µM
[7] = second compound 0.316 µM, first compound 0.000949 µM
[8] = second compound 0.316 µM, first compound 0.003 µM
[9] = second compound 0.316 µM, first compound 0.00949 µM
[10] = second compound 0.316 µM, first compound 0.03 µM
[11] = second compound 0.316 µM, first compound 0.0949 µM
[12] = second compound 0.316 µM, first compound 0.3 µM
[13] = second compound 1 µM, first compound 0.000949 µM
[14] = second compound 1 µM, first compound 0.003 µM
[15] = second compound 1 µM, first compound 0.00949 µM
[16] = second compound 1 µM, first compound 0.03 µM
[17] = second compound 1 µM, first compound 0.0949 µM
[18] = second compound 1 µM, first compound 0.3 µM
[19] = second compound 3.16 µM, first compound 0.000949 µM
[20] = second compound 3.16 µM, first compound 0.003 µM
[21] = second compound 3.16 µM, first compound 0.00949 µM
[22] = second compound 3.16 µM, first compound 0.03 µM
[23] = second compound 3.16 µM, first compound 0.0949 µM
[24] = second compound 3.16 µM, first compound 0.3 µM
[25] = second compound 10 µM, first compound 0.000949 µM
[26] = second compound 10 µM, first compound 0.003 µM
[27] = second compound 10 µM, first compound 0.00949 µM
[28] = second compound 10 µM, first compound 0.03 µM
[29] = second compound 10 µM, first compound 0.0949 µM
[30] = second compound 10 µM, first compound 0.3 µM
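Also: exposure lasted 7 days after dosing on day 3 of spheroid growth.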

For `CC(C)CC(NC(=O)C(Cc1ccccc1)NC(=O)c1cnccn1)B(O)O` (stereo not given) + Cc1cncc(-c2nc(NCCc3c[nH]c4ccccc34)c3ncn(C(C)C)c3n2)c1, the IC50 (second compound 0.1 µM) was 9.01 nM, the IC50 (second compound 0.316 µM) was 8.45 nM and the IC50 (second compound 1 µM) was 7.37 nM. It also gave an IC50 (second compound 3.16 µM) of 6.62 nM, an IC50 (second compound 10 µM) of 3.48 nM and a viability, T/C [1] of 90.2%. It also gave a viability, T/C [2] of 93.5%, a viability, T/C [3] of 48.1% and a viability, T/C [4] of 0.14%. It also gave a viability, T/C [5] of 0.1%, a viability, T/C [6] of 0.23% and a viability, T/C [7] of 97.4%. It also gave a viability, T/C [8] of 96.1%, a viability, T/C [9] of 44.8% and a viability, T/C [10] of 0.11%. For the same compound, the viability, T/C [11] was 0.06%, the viability, T/C [12] was 0.21% and the viability, T/C [13] was 111%. It also gave a viability, T/C [14] of 93.9%, a viability, T/C [15] of 38.7% and a viability, T/C [16] of 0.1%. It also gave a viability, T/C [17] of 0.05%, a viability, T/C [18] of 0.21% and a viability, T/C [19] of 105%. The viability, T/C [20] was 111%, the viability, T/C [21] was 23.6% and the viability, T/C [22] was 0.14%. The viability, T/C [23] was 0.84%, the viability, T/C [24] was 0.2% and the viability, T/C [25] was 61.7%. For the same compound, the viability, T/C [26] was 57.3%, the viability, T/C [27] was 0.3% and the viability, T/C [28] was 0.24%. It also gave a viability, T/C [29] of 0.23% and a viability, T/C [30] of 0.62%.
`CCc1c2c(nc3ccc(O)cc13)-c1cc3c(c(=O)n1C2)COC(=O)[C@]3(O)CC` + Cc1cncc(-c2nc(NCCc3c[nH]c4ccccc34)c3ncn(C(C)C)c3n2)c1 was tested, and the IC50 (second compound 0.1 µM) was 270 nM, the IC50 (second compound 0.316 µM) was greater than 300 nM and the IC50 (second compound 1 µM) was greater than 300 nM. It also gave an IC50 (second compound 3.16 µM) of 265 nM, an IC50 (second compound 10 µM) of less than 0.949 nM and a viability, T/C [1] of 85.1%. It also gave a viability, T/C [2] of 79.9%, a viability, T/C [3] of 79% and a viability, T/C [4] of 71.2%. The viability, T/C [5] was 61.1%, the viability, T/C [6] was 49% and the viability, T/C [7] was 83.9%. It also gave a viability, T/C [8] of 94.5%, a viability, T/C [9] of 77.5% and a viability, T/C [10] of 65.8%. The viability, T/C [11] was 56.4%, the viability, T/C [12] was 54.3% and the viability, T/C [13] was 87.6%. The viability, T/C [14] was 89.3%, the viability, T/C [15] was 84.7% and the viability, T/C [16] was 72.5%. The viability, T/C [17] was 64.3%, the viability, T/C [18] was 53.9% and the viability, T/C [19] was 91.9%. For the same compound, the viability, T/C [20] was 99.5%, the viability, T/C [21] was 86.1% and the viability, T/C [22] was 88.9%. For the same compound, the viability, T/C [23] was 55.8%, the viability, T/C [24] was 49.4% and the viability, T/C [25] was 44.6%. For the same compound, the viability, T/C [26] was 48.3%, the viability, T/C [27] was 27.3% and the viability, T/C [28] was 31.3%. The viability, T/C [29] was 25.5% and the viability, T/C [30] was 27.1%.
`COc1cc(Nc2ncc3c(n2)-c2ccc(Cl)cc2C(c2c(F)cccc2OC)=NC3)ccc1C(=O)O` + Cc1cncc(-c2nc(NCCc3c[nH]c4ccccc34)c3ncn(C(C)C)c3n2)c1 showed an IC50 (second compound 0.1 µM) greater than 10000 nM, an IC50 (second compound 0.316 µM) greater than 10000 nM and an IC50 (second compound 1 µM) greater than 10000 nM. The IC50 (second compound 3.16 µM) was greater than 10000 nM, the IC50 (second compound 10 µM) was greater than 10000 nM and the viability, T/C (second compound 0.1 µM, first compound 0.0316 µM) was 83.8%. The viability, T/C (second compound 0.1 µM, first compound 0.1 µM) was 86.9%, the viability, T/C (second compound 0.1 µM, first compound 0.316 µM) was 81.7% and the viability, T/C (second compound 0.1 µM, first compound 1 µM) was 72.5%. It also gave a viability, T/C (second compound 0.1 µM, first compound 3.16 µM) of 73.8%, a viability, T/C (second compound 0.1 µM, first compound 10 µM) of 61.5% and a viability, T/C (second compound 0.316 µM, first compound 0.0316 µM) of 86.3%. The viability, T/C (second compound 0.316 µM, first compound 0.1 µM) was 83.1%, the viability, T/C (second compound 0.316 µM, first compound 0.316 µM) was 81.7% and the viability, T/C (second compound 0.316 µM, first compound 1 µM) was 72.2%. It also gave a viability, T/C (second compound 0.316 µM, first compound 3.16 µM) of 73.6%, a viability, T/C (second compound 0.316 µM, first compound 10 µM) of 65.5% and a viability, T/C (second compound 1 µM, first compound 0.0316 µM) of 91.8%. The viability, T/C (second compound 1 µM, first compound 0.1 µM) was 88.6%, the viability, T/C (second compound 1 µM, first compound 0.316 µM) was 75.3% and the viability, T/C (second compound 1 µM, first compound 1 µM) was 82.8%. The viability, T/C (second compound 1 µM, first compound 3.16 µM) was 80%, the viability, T/C (second compound 1 µM, first compound 10 µM) was 70.8% and the viability, T/C (second compound 3.16 µM, first compound 0.0316 µM) was 92.2%. It also gave a viability, T/C (second compound 3.16 µM, first compound 0.1 µM) of 98%, a viability, T/C (second compound 3.16 µM, first compound 0.316 µM) of 102% and a viability, T/C (second compound 3.16 µM, first compound 1 µM) of 81.8%. It also gave a viability, T/C (second compound 3.16 µM, first compound 3.16 µM) of 81.2%, a viability, T/C (second compound 3.16 µM, first compound 10 µM) of 72.7% and a viability, T/C (second compound 10 µM, first compound 0.0316 µM) of 54.4%. For the same compound, the viability, T/C (second compound 10 µM, first compound 0.1 µM) was 55%, the viability, T/C (second compound 10 µM, first compound 0.316 µM) was 53.1% and the viability, T/C (second compound 10 µM, first compound 1 µM) was 51.4%. The viability, T/C (second compound 10 µM, first compound 3.16 µM) was 56.4% and the viability, T/C (second compound 10 µM, first compound 10 µM) was 71.2%.
